Experimental data taken from patent publication US20230227427A1, “IL-17A MODULATORS” (SANOFI, priority 2010, published 2023).
Where two headings read alike, the source gives them in different places.

Molecular target: T1, human recombinant IL-17A (Homo sapiens, UniProt Q16552)
T1 construct: purchased R&D Systems 7955-IL/CF
T1 sequence (Q16552 24-155): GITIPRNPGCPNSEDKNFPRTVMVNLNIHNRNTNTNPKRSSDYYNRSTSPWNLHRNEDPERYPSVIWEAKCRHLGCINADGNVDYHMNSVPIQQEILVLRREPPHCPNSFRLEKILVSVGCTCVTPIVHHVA
Assay: IL-17A AlphaLISA assay (block binding of IL-17A to its receptor IL-17RA)
Details: read-out: AlphaLISA pIC50 (converted)
Summary of the method: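 Compounds pre-incubated 24 h at RT (30 min where flagged) with human IL-17A (7.5 nM stock) before IL-17RA/Fc (5 nM stock), 90 min. Read by AlphaLISA via anti-Fc acceptor and biotin anti-IL-17A/streptavidin donor beads, 680/615 nm. 4-parameter fit; DMSO and 6 μM reference inhibitor as controls; pIC50.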

[1] = compounds pre-incubated with the IL-17A for 30 min (indicated by * in Table A)
[2] = compounds pre-incubated with the IL-17A for 24 h at room temperature

IC50 [1] [nM] | IC50 [2] [nM] | Structure (SMILES)
200 |  | Cc1cnn(C)c1-c1ccc(NC(=O)[C@@H](NC(=O)c2ccnn2C(C)C)[C@H]2CC[C@H](C)CC2)cn1 [Example 204, N—((S)-2-((6-(1,4-dimethyl-1H-pyrazol-5-yl)pyridin-3-yl)amino)-1-((1r,4S)-4-methylcyclohexyl)-2-oxoethyl)-1-isopropyl-1H-pyrazole-5-carboxamide]
79.4 |  | Cc1cnn(C)c1-c1ccc(NC(=O)[C@@H](NC(=O)c2ccnn2C)C2CCCCCC2)nc1 [Example 132, (S)—N-(1-Cycloheptyl-2-((5-(1,4-dimethyl-1H-pyrazol-5-yl)pyridin-2-yl)amino)-2-oxoethyl)-1-methyl-1H-pyrazole-5-carboxamide]
100 |  | CCn1nccc1C(=O)N[C@H](C(=O)Nc1ccc(-c2c(C)noc2C)nc1)C1CCCCCC1 [Example 169, (S)—N-(1-cycloheptyl-2-((6-(3,5-dimethylisoxazol-4-yl)pyridin-3-yl)amino)-2-oxoethyl)-1-ethyl-1H-pyrazole-5-carboxamide]
100 |  | CCc1nocc1C(=O)N[C@H](C(=O)Nc1ccc(-c2c(C)nnn2C)cn1)[C@H]1CC[C@H](C)CC1 [Example 188, N—((S)-2-((5-(1,4-dimethyl-1H-1,2,3-triazol-5-yl)pyridin-2-yl)amino)-1-((1r,4S)-4-methylcyclohexyl)-2-oxoethyl)-3-ethylisoxazole-4-carboxamide]
126 |  | CCn1nccc1C(=O)N[C@H](C(=O)Nc1ccc(-c2c(C)c[n+]([O-])cc2C)cn1)[C@H]1CC[C@H](C)CC1 [Example 139, 6-((S)-2-(1-Ethyl-1H-pyrazole-5-carboxamido)-2-((1r,4S)-4-methylcyclohexyl)acetamido)-3′,5′-dimethyl-[3,4′-bipyridine]1′-oxide]
 | 126 | Cn1nccc1C(=O)N[C@H](C(=O)Nc1ccc(-c2ccncc2C#N)cc1)C(c1ccccc1)c1ccccc1 [Example 43, (S)—N-(1-((4-(3-cyanopyridin-4-yl)phenyl)amino)-1-oxo-3,3-diphenylpropan-2-yl)-1-methyl-1H-pyrazole-5-carboxamide]
 | 6.31 | COc1cncc(OC)c1-c1ccc(NC(=O)[C@@H](NC(=O)c2ccnn2C)C(c2ccccc2)c2ccccc2)cc1 [Example 9, (S)—N-(1-((4-(3,5-dimethoxypyridin-4-yl)phenyl)amino)-1-oxo-3,3-diphenylpropan-2-yl)-1-methyl-1H-pyrazole-5-carboxamide]
126 |  | Cc1cc(=O)n(C)c(C)c1-c1ccc(NC(=O)[C@@H](NC(=O)c2ccnn2C)[C@H]2CC[C@H](C)CC2)nc1 [Example 215, 1-methyl-N—((S)-1-((1r,4S)-4-methylcyclohexyl)-2-oxo-2-((1′,2′,4′-trimethyl-6′-oxo-1′,6′-dihydro-[3,3′-bipyridin]-6-yl)amino)ethyl)-1H-pyrazole-5-carboxamide]
200 |  | Cc1cnn(C)c1-c1ccc(NC(=O)[C@@H](NC(=O)c2conc2C(C)(C)C)[C@H]2CC[C@H](C)CC2)nc1 [Example 192, 3-(tert-butyl)-N—((S)-2-((5-(1,4-dimethyl-1H-pyrazol-5-yl)pyridin-2-yl)amino)-1-((1r,4S)-4-methylcyclohexyl)-2-oxoethyl)isoxazole-4-carboxamide]
398 |  | CCn1nccc1C(=O)N[C@H](C(=O)Nc1cnc(-c2c(C)cnn2C)nc1)[C@H]1CC[C@H](C)CC1 [Example 147, N—((S)-2-((2-(1,4-dimethyl-1H-pyrazol-5-yl)pyrimidin-5-yl)amino)-1-((1r,4S)-4-methylcyclohexyl)-2-oxoethyl)-1-ethyl-1H-pyrazole-5-carboxamide]
 | 5.01 | COc1c[n+]([O-])cc(OC)c1-c1ccc(NC(=O)[C@@H](NC(=O)c2ccnn2C)C(c2ccccc2)c2ccccc2)cc1 [Example 27, (S)-3,5-dimethoxy-4-(4-(2-(1-methyl-1H-pyrazole-5-carboxamido)-3,3-diphenylpropanamido)phenyl)pyridine 1-oxide]
